# Assays:
# HCT-116 (colorectal) = HCT-116 (colorectal) xenograft model; format: in vivo, Mouse; details: nude mouse, 1 mg/kg, (4) cycles
# Method: The efficacy of Aza-T-dCyd was confirmed by tumor growth curves after administration of Aza-T-dCyd in various solid cancer xenograft models. Aza-T-dCyd at a dose of 1~2 mg/kg was administered repeatedly for 2~6 cycles in QD×5, showing excellent anti-cancer effects (evidenced by test/control (T/C) value≤40%).
# [1] = test system: RRM1 protein, dCTP and dTTP; assay: RRM1 expression and pyrimidine level in cells; format: cell-based
# Description: The reduction of dCTP and dTTP, which act as important precursors for cancer cells to replicate DNA, can cause replication stress and generate a strong DNA damage response.
# H2AX, Chk1, p53 = assay: DNA damage response markers; format: cell-based
# BL0382PD PDX (bladder) = format: in vivo, Mouse; details: NSG mouse, 1 mg/kg, (4) cycles
# Description: The efficacy of Aza-T-dCyd was confirmed by tumor growth curves after administration of Aza-T-dCyd in various solid cancer xenograft models. […]
# Molm13 Xenograft model = assay: Molm13 Xenograft model; format: in vivo; details: oral 0.2-1.5 mg/kg
# [2] = cited from earlier work
# DNMT3B [3] = target: T1, DNMT3B (Homo sapiens, UniProt Q9UBC3); assay: Western blotting of Molm13 xenograft cancer tissues, DNMT3B; format: in vivo; parameters: cancer tissues were harvested and analyzed by Western blotting; from tissue; host or cells: Molm13 leukemia xenograft cancer tissue
# DNMT3B [4] = target: T1, DNMT3B; assay: DNMT3B expression in HL-60 xenograft tumor samples; format: in vivo, mice; parameters: tumor samples were collected on day 11 to determine the expression of DNMT1, DNMT3A, and DNMT3B; from tissue; host or cells: HL-60 xenograft tumour samples (mouse host); details: 2 mg/kg NTX-301 or 0.75 mg/kg Decitabine intraperitoneally, day 11
# Method: As the efficacy of DNMT1 inhibitors correlates with their selective profile for targeting DNMT1 and the de novo methyltransferases DNMT3A and DNMT3B, we confirmed the expression of DNMT1, DNMT3A, and DNMT3B in the Aza-T-dCyd and Decitabine treated groups in this xenograft model (FIG. 27).
# In the HL-60 xenograft mice model, 2 mg/kg of NTX-301 (Aza-T-dCyd) or 0.75 mg/kg of Decitabine were administered intraperitoneally, and then tumor samples were collected on day 11 to determine the expression of DNMT1, DNMT3A, and DNMT3B. […] On the other hand, the expression levels of DNMT3A and DNMT3B were different in the Aza-T-dCyd and Decitabine treatment groups.
# [5] = Mouse AUC used for the human PK simulation; details: in vivo, mice, dose of 2.0 mg/kg
# Method: The 96 mg/day must be divided by 3 or 4, resulting in 24 to 32 mg/day.
compound,measurement,setting,value
"Nc1ncn([C@H]2CC(O)[C@@H](CO)S2)c(=O)n1 (some centres unmarked) [Aza-T-dCyd, 4′-thio-5-aza-2′-deoxycytidine]",Optimal T/C (%) (test/control),HCT-116 (colorectal),21%
same,RRM1 protein expression,[1],inhibited the expression of RRM1 protein
same,amount of dCTP and dTTP in the cells,[1],decreased the amount of dCTP and dTTP
same,H2AX phosphorylation,"H2AX, Chk1, p53",increased H2AX phosphorylation
same,expression of p53 protein,"H2AX, Chk1, p53",increased expression of p53 protein
same,phosphorylation of Chk1,"H2AX, Chk1, p53",increased phosphorylation of Chk1
same,Optimal T/C (%) (test/control),BL0382PD PDX (bladder),23%
same,anti-cancer effect,Molm13 Xenograft model,potent anti-cancer effect in a dose-dependent manner
same,toxicity signals (body weight changes),Molm13 Xenograft model,without any toxicity signals
same,AUC value,"[2]; 16 mg/day dose, NCI's Phase 1 trial",about 50 ng*h/mL
same,side effects,"[2]; Phase 1a, solid tumors, dose approximately twice that of conventional decitabine",no significant side effects were observed
same,disease control rate,"[2]; clinical trials, 32 mg/day dose",high disease control rate
same,MTD dose in Phase 1,[2]; humans,32 mg
same,DNMT3B protein of approximately 90 kDa,"DNMT3B [3]; Molm13 AML xenograft, above 0.4 mg/kg",clear reduction of DNMT3B protein
same,DNMT3B in cancer tissues (Western blotting),"DNMT3B [3]; Molm13 xenograft, after administration",strongly inhibited DNMT1 and DNMT3B in a concentration-dependent manner
same,DNMT3B expression level in tumor samples,DNMT3B [4],significantly reduced
same,AUC,[5],369 ng·h/mL
